Laboratory results reported in ChEMBL document CHEMBL5442219.

Tests used:
Settings in all cases: Compound concentration 10 µM
[1] = target: T1, Alpha-2C adrenergic receptor (Homo sapiens) (UniProt P18825)
T1 sequence (whole entry): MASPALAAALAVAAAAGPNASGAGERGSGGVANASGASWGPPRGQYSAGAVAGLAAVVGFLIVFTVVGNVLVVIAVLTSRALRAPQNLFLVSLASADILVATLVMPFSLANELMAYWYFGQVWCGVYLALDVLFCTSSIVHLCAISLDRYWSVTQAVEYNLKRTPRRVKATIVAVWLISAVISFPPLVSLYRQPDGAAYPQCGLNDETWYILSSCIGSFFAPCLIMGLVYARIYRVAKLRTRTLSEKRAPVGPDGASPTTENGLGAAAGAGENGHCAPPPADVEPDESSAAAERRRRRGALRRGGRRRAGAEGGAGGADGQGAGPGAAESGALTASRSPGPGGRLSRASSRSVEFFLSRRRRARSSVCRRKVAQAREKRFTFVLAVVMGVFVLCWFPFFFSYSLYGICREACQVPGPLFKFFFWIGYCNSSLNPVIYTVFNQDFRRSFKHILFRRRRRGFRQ
Description: PDSP Primary Binding target: ADRA2C - Compounds are tested at 10 uM concentration, plate are incubated at room temperature in the dark for 90 minutes. Reaction are stopped by vacuum filtration onto 0.3% polyethyleneimine soaked filter mats using Filtermate harvester. Scintilation cocktail is then melted onto microwave-dried filters on a hot plate and the radio activity is counted in Microbia counter.

[2] = target: T2, Muscarinic acetylcholine receptor M1 (Homo sapiens) (UniProt P11229)
T2 sequence (whole entry): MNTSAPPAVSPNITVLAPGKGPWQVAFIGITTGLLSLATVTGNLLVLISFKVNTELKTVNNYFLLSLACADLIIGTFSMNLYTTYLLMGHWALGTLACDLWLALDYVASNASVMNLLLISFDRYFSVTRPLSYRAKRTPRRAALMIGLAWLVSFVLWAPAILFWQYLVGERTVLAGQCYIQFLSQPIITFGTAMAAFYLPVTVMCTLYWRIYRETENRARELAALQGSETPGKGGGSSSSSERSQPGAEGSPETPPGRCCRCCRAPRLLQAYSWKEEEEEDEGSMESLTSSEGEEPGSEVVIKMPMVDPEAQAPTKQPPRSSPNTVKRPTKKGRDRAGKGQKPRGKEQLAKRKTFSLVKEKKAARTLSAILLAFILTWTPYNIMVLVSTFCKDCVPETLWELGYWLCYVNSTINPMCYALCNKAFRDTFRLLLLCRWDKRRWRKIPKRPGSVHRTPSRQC
Description: PDSP Primary Binding target: CHRM1 - Compounds are tested at 10 uM concentration, plate are incubated at room temperature in the dark for 90 minutes. Reaction are stopped by vacuum filtration onto 0.3% polyethyleneimine soaked filter mats using Filtermate harvester. Scintilation cocktail is then melted onto microwave-dried filters on a hot plate and the radio activity is counted in Microbia counter.

[3] = target: T3, Muscarinic acetylcholine receptor M4 (Homo sapiens) (UniProt P08173)
T3 sequence (whole entry): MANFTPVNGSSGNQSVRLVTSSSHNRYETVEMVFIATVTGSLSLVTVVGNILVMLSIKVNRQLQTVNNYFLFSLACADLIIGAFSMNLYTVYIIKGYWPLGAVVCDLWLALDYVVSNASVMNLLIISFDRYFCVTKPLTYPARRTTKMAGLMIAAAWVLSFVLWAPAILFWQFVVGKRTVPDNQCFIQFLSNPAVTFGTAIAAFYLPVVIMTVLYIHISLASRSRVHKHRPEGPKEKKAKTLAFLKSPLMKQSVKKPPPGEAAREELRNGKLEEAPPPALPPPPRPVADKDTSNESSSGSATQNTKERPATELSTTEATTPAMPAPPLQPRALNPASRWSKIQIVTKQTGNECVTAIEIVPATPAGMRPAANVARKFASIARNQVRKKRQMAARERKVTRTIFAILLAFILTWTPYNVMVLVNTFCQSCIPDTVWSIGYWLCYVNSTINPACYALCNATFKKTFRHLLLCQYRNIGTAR
Description: PDSP Primary Binding target: CHRM4 - Compounds are tested at 10 uM concentration, plate are incubated at room temperature in the dark for 90 minutes. Reaction are stopped by vacuum filtration onto 0.3% polyethyleneimine soaked filter mats using Filtermate harvester. Scintilation cocktail is then melted onto microwave-dried filters on a hot plate and the radio activity is counted in Microbia counter.

[4] = target: D(1A) dopamine receptor (Homo sapiens) (UniProt P21728)
D(1A) dopamine receptor (Homo sapiens), sequence (P21728 whole entry): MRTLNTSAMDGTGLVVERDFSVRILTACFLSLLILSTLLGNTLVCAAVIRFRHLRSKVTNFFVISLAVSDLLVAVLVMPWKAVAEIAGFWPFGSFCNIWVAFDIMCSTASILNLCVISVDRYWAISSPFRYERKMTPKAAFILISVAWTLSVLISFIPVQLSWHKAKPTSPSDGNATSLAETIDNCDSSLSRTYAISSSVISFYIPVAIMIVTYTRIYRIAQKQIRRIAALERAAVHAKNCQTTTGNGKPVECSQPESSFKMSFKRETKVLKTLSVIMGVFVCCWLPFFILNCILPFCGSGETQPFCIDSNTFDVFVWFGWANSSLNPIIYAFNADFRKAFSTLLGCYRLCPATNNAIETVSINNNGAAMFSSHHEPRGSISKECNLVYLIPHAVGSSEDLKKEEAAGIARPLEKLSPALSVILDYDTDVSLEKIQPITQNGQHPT
Description: PDSP Primary Binding target: DRD1 - Compounds are tested at 10 uM concentration, plate are incubated at room temperature in the dark for 90 minutes. Reaction are stopped by vacuum filtration onto 0.3% polyethyleneimine soaked filter mats using Filtermate harvester. Scintilation cocktail is then melted onto microwave-dried filters on a hot plate and the radio activity is counted in Microbia counter.

[5] = target: 5-hydroxytryptamine receptor 2A (Homo sapiens) (UniProt P28223)
5-hydroxytryptamine receptor 2A (Homo sapiens), sequence (P28223 whole entry): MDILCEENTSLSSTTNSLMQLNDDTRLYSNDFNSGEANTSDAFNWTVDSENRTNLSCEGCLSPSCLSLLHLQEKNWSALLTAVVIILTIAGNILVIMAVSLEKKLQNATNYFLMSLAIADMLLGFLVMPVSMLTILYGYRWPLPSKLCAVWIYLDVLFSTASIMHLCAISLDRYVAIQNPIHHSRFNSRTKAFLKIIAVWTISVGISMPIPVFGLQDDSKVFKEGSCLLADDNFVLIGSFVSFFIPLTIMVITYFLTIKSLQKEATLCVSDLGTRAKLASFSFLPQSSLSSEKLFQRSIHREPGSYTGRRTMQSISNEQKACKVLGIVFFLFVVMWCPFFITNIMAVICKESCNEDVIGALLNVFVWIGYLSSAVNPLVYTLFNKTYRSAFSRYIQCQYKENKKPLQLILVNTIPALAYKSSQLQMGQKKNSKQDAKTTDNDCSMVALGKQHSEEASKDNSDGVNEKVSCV
Description: PDSP Primary Binding target: HTR2A - Compounds are tested at 10 uM concentration, plate are incubated at room temperature in the dark for 90 minutes. Reaction are stopped by vacuum filtration onto 0.3% polyethyleneimine soaked filter mats using Filtermate harvester. Scintilation cocktail is then melted onto microwave-dried filters on a hot plate and the radio activity is counted in Microbia counter.

[6] = target: Mu-type opioid receptor (Homo sapiens) (UniProt P35372)
Description: PDSP Primary Binding target: OPRM1 - Compounds are tested at 10 uM concentration, plate are incubated at room temperature in the dark for 90 minutes. Reaction are stopped by vacuum filtration onto 0.3% polyethyleneimine soaked filter mats using Filtermate harvester. Scintilation cocktail is then melted onto microwave-dried filters on a hot plate and the radio activity is counted in Microbia counter.

[7] = target: Sodium-dependent dopamine transporter (Homo sapiens) (UniProt Q01959)
Sodium-dependent dopamine transporter (Homo sapiens), sequence (Q01959 whole entry): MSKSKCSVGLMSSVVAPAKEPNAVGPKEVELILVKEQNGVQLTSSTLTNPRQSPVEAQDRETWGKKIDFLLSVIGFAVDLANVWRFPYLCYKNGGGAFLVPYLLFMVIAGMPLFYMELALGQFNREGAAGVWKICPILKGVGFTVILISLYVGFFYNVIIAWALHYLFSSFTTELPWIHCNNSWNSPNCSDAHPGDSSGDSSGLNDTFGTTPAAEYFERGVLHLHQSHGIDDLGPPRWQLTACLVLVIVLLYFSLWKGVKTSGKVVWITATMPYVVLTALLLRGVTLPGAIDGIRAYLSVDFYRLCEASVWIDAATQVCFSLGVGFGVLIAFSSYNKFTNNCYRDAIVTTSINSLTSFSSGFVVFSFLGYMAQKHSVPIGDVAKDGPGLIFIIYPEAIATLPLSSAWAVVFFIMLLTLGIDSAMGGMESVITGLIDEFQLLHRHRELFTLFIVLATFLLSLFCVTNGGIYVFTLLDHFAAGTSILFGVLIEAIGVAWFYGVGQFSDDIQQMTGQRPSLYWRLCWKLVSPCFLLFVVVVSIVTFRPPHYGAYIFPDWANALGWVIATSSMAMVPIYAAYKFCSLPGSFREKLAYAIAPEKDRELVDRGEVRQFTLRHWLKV
Description: PDSP Primary Binding target: SLC6A3 - Compounds are tested at 10 uM concentration, plate are incubated at room temperature in the dark for 90 minutes. Reaction are stopped by vacuum filtration onto 0.3% polyethyleneimine soaked filter mats using Filtermate harvester. Scintilation cocktail is then melted onto microwave-dried filters on a hot plate and the radio activity is counted in Microbia counter.

[8] = target: Sigma intracellular receptor 2 (Homo sapiens) (UniProt Q5BJF2)
Sigma intracellular receptor 2 (Homo sapiens), sequence (Q5BJF2 whole entry): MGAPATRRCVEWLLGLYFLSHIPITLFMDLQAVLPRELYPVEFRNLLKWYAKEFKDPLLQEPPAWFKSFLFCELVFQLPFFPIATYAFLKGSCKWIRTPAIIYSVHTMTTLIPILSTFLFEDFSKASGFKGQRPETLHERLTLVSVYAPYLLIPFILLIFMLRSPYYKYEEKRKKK
Description: PDSP Primary Binding target: TMEM97 - Compounds are tested at 10 uM concentration, plate are incubated at room temperature in the dark for 90 minutes. Reaction are stopped by vacuum filtration onto 0.3% polyethyleneimine soaked filter mats using Filtermate harvester. Scintilation cocktail is then melted onto microwave-dried filters on a hot plate and the radio activity is counted in Microbia counter.

[9] = target: Histamine H2 receptor (Homo sapiens) (UniProt P25021)
Histamine H2 receptor (Homo sapiens), sequence (P25021 whole entry): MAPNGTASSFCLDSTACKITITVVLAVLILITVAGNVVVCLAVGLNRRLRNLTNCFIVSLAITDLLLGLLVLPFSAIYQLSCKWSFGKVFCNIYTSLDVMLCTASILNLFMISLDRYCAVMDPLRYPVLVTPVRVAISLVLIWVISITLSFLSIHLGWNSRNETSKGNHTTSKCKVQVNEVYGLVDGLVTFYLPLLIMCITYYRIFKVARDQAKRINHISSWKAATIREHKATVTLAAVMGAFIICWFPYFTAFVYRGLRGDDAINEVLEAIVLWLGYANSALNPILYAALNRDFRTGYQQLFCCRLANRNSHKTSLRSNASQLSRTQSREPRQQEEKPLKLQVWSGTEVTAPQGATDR
Description: PDSP Primary Binding target: HRH2 - Compounds are tested at 10 uM concentration, plate are incubated at room temperature in the dark for 90 minutes. Reaction are stopped by vacuum filtration onto 0.3% polyethyleneimine soaked filter mats using Filtermate harvester. Scintilation cocktail is then melted onto microwave-dried filters on a hot plate and the radio activity is counted in Microbia counter.

[10] = target: T4, Alpha-1B adrenergic receptor (Homo sapiens) (UniProt P35368)
T4 sequence (whole entry): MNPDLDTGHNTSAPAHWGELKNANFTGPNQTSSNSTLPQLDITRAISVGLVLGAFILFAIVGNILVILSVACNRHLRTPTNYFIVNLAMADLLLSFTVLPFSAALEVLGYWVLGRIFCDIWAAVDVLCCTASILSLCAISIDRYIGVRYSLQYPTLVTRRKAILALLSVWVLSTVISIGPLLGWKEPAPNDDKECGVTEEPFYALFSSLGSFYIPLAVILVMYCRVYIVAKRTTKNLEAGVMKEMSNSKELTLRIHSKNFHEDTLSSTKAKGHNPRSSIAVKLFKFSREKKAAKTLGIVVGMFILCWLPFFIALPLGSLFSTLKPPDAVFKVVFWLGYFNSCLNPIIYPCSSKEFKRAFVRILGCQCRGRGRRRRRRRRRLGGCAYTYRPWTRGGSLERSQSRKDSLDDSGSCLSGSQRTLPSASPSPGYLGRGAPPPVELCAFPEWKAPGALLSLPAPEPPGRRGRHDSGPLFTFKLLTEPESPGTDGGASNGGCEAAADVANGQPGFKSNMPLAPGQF
Description: PDSP Primary Binding target: ADRA1B - Compounds are tested at 10 uM concentration, plate are incubated at room temperature in the dark for 90 minutes. Reaction are stopped by vacuum filtration onto 0.3% polyethyleneimine soaked filter mats using Filtermate harvester. Scintilation cocktail is then melted onto microwave-dried filters on a hot plate and the radio activity is counted in Microbia counter.

[11] = target: Beta-1 adrenergic receptor (Homo sapiens) (UniProt P08588)
Beta-1 adrenergic receptor (Homo sapiens), sequence (P08588 whole entry, looked up): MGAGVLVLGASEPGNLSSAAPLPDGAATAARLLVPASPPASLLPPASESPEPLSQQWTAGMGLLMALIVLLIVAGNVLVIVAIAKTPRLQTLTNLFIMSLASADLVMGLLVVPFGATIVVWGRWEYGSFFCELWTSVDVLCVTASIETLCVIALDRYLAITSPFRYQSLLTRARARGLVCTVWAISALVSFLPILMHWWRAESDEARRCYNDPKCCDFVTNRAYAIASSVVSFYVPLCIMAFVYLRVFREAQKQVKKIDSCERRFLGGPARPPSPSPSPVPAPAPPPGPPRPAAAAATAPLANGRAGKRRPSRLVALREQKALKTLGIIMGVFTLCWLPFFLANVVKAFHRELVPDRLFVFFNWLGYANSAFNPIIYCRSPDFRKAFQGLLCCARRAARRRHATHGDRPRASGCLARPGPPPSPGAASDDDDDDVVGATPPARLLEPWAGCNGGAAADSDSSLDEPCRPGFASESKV
Description: PDSP Primary Binding target: ADRB1 - Compounds are tested at 10 uM concentration, plate are incubated at room temperature in the dark for 90 minutes. Reaction are stopped by vacuum filtration onto 0.3% polyethyleneimine soaked filter mats using Filtermate harvester. Scintilation cocktail is then melted onto microwave-dried filters on a hot plate and the radio activity is counted in Microbia counter.

[12] = target: Beta-2 adrenergic receptor (Homo sapiens) (UniProt P07550)
Description: PDSP Primary Binding target: ADRB2 - Compounds are tested at 10 uM concentration, plate are incubated at room temperature in the dark for 90 minutes. Reaction are stopped by vacuum filtration onto 0.3% polyethyleneimine soaked filter mats using Filtermate harvester. Scintilation cocktail is then melted onto microwave-dried filters on a hot plate and the radio activity is counted in Microbia counter.

[13] = target: D(1B) dopamine receptor (Homo sapiens) (UniProt P21918)
D(1B) dopamine receptor (Homo sapiens), sequence (P21918 whole entry): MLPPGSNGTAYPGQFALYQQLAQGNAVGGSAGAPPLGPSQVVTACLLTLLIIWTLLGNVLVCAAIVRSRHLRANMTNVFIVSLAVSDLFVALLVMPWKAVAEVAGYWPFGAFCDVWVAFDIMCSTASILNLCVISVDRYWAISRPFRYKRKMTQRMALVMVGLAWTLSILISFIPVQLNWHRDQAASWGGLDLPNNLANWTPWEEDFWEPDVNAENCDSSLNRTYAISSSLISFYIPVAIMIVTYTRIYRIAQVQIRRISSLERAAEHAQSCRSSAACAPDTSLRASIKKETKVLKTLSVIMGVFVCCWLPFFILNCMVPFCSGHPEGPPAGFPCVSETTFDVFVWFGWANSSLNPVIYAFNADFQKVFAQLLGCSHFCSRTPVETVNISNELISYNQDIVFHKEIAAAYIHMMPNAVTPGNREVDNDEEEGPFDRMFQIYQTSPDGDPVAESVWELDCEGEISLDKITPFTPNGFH
Description: PDSP Primary Binding target: DRD5 - Compounds are tested at 10 uM concentration, plate are incubated at room temperature in the dark for 90 minutes. Reaction are stopped by vacuum filtration onto 0.3% polyethyleneimine soaked filter mats using Filtermate harvester. Scintilation cocktail is then melted onto microwave-dried filters on a hot plate and the radio activity is counted in Microbia counter.

[14] = target: 5-hydroxytryptamine receptor 1D (Homo sapiens) (UniProt P28221)
Description: PDSP Primary Binding target: HTR1D - Compounds are tested at 10 uM concentration, plate are incubated at room temperature in the dark for 90 minutes. Reaction are stopped by vacuum filtration onto 0.3% polyethyleneimine soaked filter mats using Filtermate harvester. Scintilation cocktail is then melted onto microwave-dried filters on a hot plate and the radio activity is counted in Microbia counter.

[15] = target: 5-hydroxytryptamine receptor 6 (Homo sapiens) (UniProt P50406)
Description: PDSP Primary Binding target: HTR6 - Compounds are tested at 10 uM concentration, plate are incubated at room temperature in the dark for 90 minutes. Reaction are stopped by vacuum filtration onto 0.3% polyethyleneimine soaked filter mats using Filtermate harvester. Scintilation cocktail is then melted onto microwave-dried filters on a hot plate and the radio activity is counted in Microbia counter.

[16] = target: 5-hydroxytryptamine receptor 7 (Homo sapiens) (UniProt P34969)
5-hydroxytryptamine receptor 7 (Homo sapiens), sequence (P34969 whole entry): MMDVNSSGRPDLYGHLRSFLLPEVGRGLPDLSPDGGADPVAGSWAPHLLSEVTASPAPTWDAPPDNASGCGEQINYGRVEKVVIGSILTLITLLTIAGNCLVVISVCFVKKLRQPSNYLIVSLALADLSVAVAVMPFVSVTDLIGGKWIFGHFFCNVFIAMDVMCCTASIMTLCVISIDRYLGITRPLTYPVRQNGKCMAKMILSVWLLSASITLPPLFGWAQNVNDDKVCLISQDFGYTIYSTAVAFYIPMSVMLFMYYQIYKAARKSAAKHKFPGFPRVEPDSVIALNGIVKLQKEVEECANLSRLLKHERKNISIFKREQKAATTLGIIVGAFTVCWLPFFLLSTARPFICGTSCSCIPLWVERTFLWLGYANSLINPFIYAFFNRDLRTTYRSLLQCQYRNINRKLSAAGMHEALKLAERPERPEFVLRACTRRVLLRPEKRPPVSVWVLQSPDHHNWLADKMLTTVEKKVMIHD
Description: PDSP Primary Binding target: HTR7 - Compounds are tested at 10 uM concentration, plate are incubated at room temperature in the dark for 90 minutes. Reaction are stopped by vacuum filtration onto 0.3% polyethyleneimine soaked filter mats using Filtermate harvester. Scintilation cocktail is then melted onto microwave-dried filters on a hot plate and the radio activity is counted in Microbia counter.

[17] = target: Delta-type opioid receptor (Homo sapiens) (UniProt P41143)
Delta-type opioid receptor (Homo sapiens), sequence (P41143 whole entry): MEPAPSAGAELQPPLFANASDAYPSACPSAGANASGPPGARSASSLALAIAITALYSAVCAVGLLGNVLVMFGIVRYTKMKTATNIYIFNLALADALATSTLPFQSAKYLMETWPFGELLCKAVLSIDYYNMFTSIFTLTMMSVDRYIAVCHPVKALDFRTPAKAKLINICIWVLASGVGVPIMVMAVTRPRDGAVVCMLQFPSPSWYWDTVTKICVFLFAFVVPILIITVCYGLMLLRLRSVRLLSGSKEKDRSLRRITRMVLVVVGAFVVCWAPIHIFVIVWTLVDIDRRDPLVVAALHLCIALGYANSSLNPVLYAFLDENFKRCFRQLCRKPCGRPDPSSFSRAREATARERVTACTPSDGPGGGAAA
Description: PDSP Primary Binding target: OPRD1 - Compounds are tested at 10 uM concentration, plate are incubated at room temperature in the dark for 90 minutes. Reaction are stopped by vacuum filtration onto 0.3% polyethyleneimine soaked filter mats using Filtermate harvester. Scintilation cocktail is then melted onto microwave-dried filters on a hot plate and the radio activity is counted in Microbia counter.

[18] = target: Sodium-dependent noradrenaline transporter (Homo sapiens) (UniProt P23975)
Sodium-dependent noradrenaline transporter (Homo sapiens), sequence (P23975 whole entry): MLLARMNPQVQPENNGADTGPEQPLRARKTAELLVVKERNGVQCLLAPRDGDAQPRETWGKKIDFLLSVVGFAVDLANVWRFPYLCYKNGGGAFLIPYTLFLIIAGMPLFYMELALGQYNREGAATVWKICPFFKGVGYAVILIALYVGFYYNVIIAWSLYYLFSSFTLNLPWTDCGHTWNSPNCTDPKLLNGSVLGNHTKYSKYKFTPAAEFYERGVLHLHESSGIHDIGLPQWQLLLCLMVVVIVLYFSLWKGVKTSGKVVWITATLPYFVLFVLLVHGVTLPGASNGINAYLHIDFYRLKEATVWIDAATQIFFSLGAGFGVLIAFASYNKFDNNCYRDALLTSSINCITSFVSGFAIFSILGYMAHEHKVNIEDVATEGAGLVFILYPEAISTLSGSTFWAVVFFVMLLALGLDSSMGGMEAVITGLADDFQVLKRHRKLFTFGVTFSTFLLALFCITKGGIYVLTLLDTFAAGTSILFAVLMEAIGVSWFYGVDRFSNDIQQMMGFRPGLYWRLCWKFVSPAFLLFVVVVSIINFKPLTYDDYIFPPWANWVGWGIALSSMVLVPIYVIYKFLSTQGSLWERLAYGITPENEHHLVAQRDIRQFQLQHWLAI
Description: PDSP Primary Binding target: SLC6A2 - Compounds are tested at 10 uM concentration, plate are incubated at room temperature in the dark for 90 minutes. Reaction are stopped by vacuum filtration onto 0.3% polyethyleneimine soaked filter mats using Filtermate harvester. Scintilation cocktail is then melted onto microwave-dried filters on a hot plate and the radio activity is counted in Microbia counter.

[19] = target: Beta-3 adrenergic receptor (Homo sapiens) (UniProt P13945)
Beta-3 adrenergic receptor (Homo sapiens), sequence (P13945 whole entry, looked up): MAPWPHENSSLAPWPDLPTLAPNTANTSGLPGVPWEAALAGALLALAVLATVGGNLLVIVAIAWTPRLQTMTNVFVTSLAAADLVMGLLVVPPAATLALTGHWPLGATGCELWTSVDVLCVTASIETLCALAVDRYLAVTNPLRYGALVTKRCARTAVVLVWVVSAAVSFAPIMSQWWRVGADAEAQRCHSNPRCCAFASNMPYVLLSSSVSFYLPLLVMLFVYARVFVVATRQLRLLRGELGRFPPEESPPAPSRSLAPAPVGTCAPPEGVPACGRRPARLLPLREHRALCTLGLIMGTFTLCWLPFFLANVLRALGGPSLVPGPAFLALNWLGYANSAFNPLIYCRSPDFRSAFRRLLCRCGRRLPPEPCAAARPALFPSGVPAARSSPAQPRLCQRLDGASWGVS
Description: PDSP Primary Binding target: ADRB3 - Compounds are tested at 10 uM concentration, plate are incubated at room temperature in the dark for 90 minutes. Reaction are stopped by vacuum filtration onto 0.3% polyethyleneimine soaked filter mats using Filtermate harvester. Scintilation cocktail is then melted onto microwave-dried filters on a hot plate and the radio activity is counted in Microbia counter.

Row | Structure (SMILES) | inhibition [1] [%] | inhibition [2] [%] | inhibition [3] [%] | inhibition [4] [%] | inhibition [5] [%] | inhibition [6] [%] | inhibition [7] [%] | inhibition [8] [%] | inhibition [9] [%] | inhibition [10] [%] | inhibition [11] [%] | inhibition [12] [%] | inhibition [13] [%] | inhibition [14] [%] | inhibition [15] [%] | inhibition [16] [%] | inhibition [17] [%] | inhibition [18] [%] | inhibition [19] [%]
1 | O=C(Nc1ccc(Cl)cc1)Nc1cccc(-c2cccc(N3CCCC3)n2)c1 | -1.24 | 9.22 | 18.8 | 6.95 | 11 | -5.02 | 18.3 | 6.97 | 20 | – | – | – | – | – | – | – | – | – | –
2 | N#Cc1ccc2[nH]cc(CCCCN3CCN(c4ccc5oc(C(N)=O)cc5c4)CC3)c2c1 | 76.3 | 1.49 | 5.32 | 22.6 | 43 | 62.7 | 99.5 | 80.3 | – | 53.7 | 11.6 | 56.2 | 36.9 | 80 | 30.3 | 82.4 | 35.4 | 98.1 | –
3 | NC[C@@H]1O[C@H](C23CC4CC(CC(C4)C2)C3)Cc2c1ccc(O)c2O | 102 | -5.8 | 8.08 | 100 | 3.87 | – | 68.4 | 81.7 | – | 56.9 | -6.91 | 29.6 | 82.7 | 43.5 | 19.1 | 25.1 | 3.82 | 58.5 | –
4 | N#Cc1c(N)nc(SCC(N)=O)c(C#N)c1-c1ccc(OCC2CC2)cc1 | – | 1.45 | 34.5 | – | 28.7 | -0.63 | 3.03 | – | 41.5 | -6.52 | – | – | – | – | 3.97 | – | -1.99 | – | –
5 | C[C@H](NC[C@H](O)CP(=O)(O)CC1CCCCC1)c1ccc(Cl)c(Cl)c1 | -5.96 | 8.07 | -3.27 | – | -0.59 | 60.4 | 62.1 | 26.7 | 26 | 6.11 | – | -1.65 | – | – | 2.61 | – | -5.34 | – | 38.3
6 | CN1C(=O)[C@@H](NC(=O)c2cc3ccccc3[nH]2)N=C(c2ccccc2)c2ccccc21 | -0.17 | 5.19 | -8 | 7.2 | 19.7 | 5.76 | 42.1 | 8.74 | – | -6.37 | 13.8 | 4.31 | -2.85 | 23.2 | 25.7 | 13.6 | 13 | 28.5 | –
7 | COC(=O)C1=C(C)NC(C)=C(C(=O)OCCCN2CCC(c3ccccc3)(c3ccccc3)CC2)[C@H]1c1cccc([N+](=O)[O-])c1 | 94.8 | 30.9 | 24.8 | 80.7 | -1.08 | 92 | 89.7 | 98.7 | – | 98.6 | 31.8 | 22.1 | 51.8 | 75.9 | 71.6 | 84.6 | 94.1 | 86.5 | –
8 | Cc1cc(C)cc(C(=O)N(C)[C@H](Cc2ccc(-c3ccccc3)cc2)C(=O)N[C@@H](Cc2c[nH]c3ccccc23)C(=O)O)c1 | 11.1 | 12.5 | 1 | – | 31.2 | -1.4 | 32.2 | – | 34.1 | 1.27 | – | 3.37 | – | – | – | – | – | – | 34.4
9 | N#Cc1cccc(C(=O)Nc2cc(-c3ccccc3)nn2-c2ccccc2)c1 | – | 3.6 | -7.29 | – | 6.53 | 6.88 | 2.12 | -8.91 | 33 | -3.29 | – | 1.08 | 0.95 | – | 6.69 | – | – | – | -5.54
10 | COc1ccc(C2(O)OC(=O)C(c3ccc4c(c3)OCO4)=C2Cc2cc(OC)c(OC)c(OC)c2)cc1 (stereo not drawn) | – | -8.77 | 1.32 | -7.61 | 12.4 | -4.54 | 27.4 | – | 24.4 | -4.11 | -2.63 | – | – | 21.7 | -2.9 | 12 | – | – | –
11 | CCc1cc2c(c(CC)n1)CCC(=O)N2Cc1ccc(-c2ccccc2-c2nnn[nH]2)cc1 | 5.68 | 1.99 | -4.36 | -4.14 | 29.2 | 51.6 | 8.77 | 8.89 | 26.1 | 25.9 | – | -4.26 | – | – | 10.1 | – | – | – | 9.68
12 | Cc1nc(-c2ccc(-c3ccc(C(=O)N4CCc5cc6c(cc54)C4(CCN(C)CC4)CO6)cc3)c(C)c2)no1 | 38 | 66.4 | 23 | 53.5 | 67.6 | -2.77 | 70.2 | 95.4 | – | 16.4 | -1.95 | 10.4 | 57.1 | 90.9 | -6.79 | 25.5 | -1.39 | 69.2 | –
13 | O=C(O)CC/C=C\C[C@@H]1CO[C@H](c2ccccc2Cl)O[C@@H]1c1ccccc1O | -7.17 | – | – | -0.4 | 3.61 | 8.82 | – | – | 31.1 | -9.67 | – | -6.03 | -4.01 | – | -3.05 | – | 46 | – | 29.5
